Assay results published in patent US20240239806A1, “COMPOUNDS, COMPOSITIONS AND METHODS OF TREATING DISORDERS” (Chengdu Anticancer Bioscience, Ltd., priority 2021, published 2024).
Like-named read-outs stand apart in the source and are kept apart here.

System: RPEMYC^H2B-GFP cells
Experiment: Phenotypic screening assay (mitotic arrest, polyploidy)
Format: cell-based
Details: 1 nM to 30 μM; for IC50: read-out: Proliferative arrest (>50%)
Experimental: We have previously developed a mechanism-informed phenotypic screening assay to identify novel antimitotic agents. Equipped with a prior understanding of the versatile functions of the chromosomal passenger protein (CPP) complex in orchestrating karyokinesis and cytokinesis, the screening assay is to score for phenotypes typically seen when the CPP complex is disabled. Specifically, the parameters for a positive hit are a temporary elevation of mitotic index (MI) at 24 hours of drug treatment and an accumulation of polyploid cells at 48 hours of drug treatment, indicative of mitotic arrest and cytokinetic failure respectively. These parameters exclude compounds that elicit only a prolonged arrest of cells in mitosis, a phenotype typically provoked by spindle toxins. The screening procedure is briefly summarized here. RPEMYC^H2B-GFP cells engineered to express a Histone 2B-EGFP fusion protein were passaged as batches of 96-well plates, 18-24 hours before exposure to the chemical compounds of the present disclosure at concentrations from 1 nM to 30 μM. At 24, 48 or 72 hours after initiation of treatment, cells were analyzed for either an arrest in mitosis or a change in DNA content by GE IN-Cell Analyzer 2000. As set forth in Table 2 below, a value of greater than or equal to 1 nM and less than or equal to 1.0 μM is marked “A”; a value greater than 1.00 μM and less than or equal to 10.0 μM is marked “B”; a value greater than 10.0 μM and less than or equal to 30.0 μM is marked “C”; and a value greater than 30.0 μM is marked “D.”

[1] = read-out: Min. Effective conc. for Polyploidy (≥5%)

Compound | minimal effective concentration [1] [µM] | minimal effective concentration (read-out: Mitotic Arrest (≥5%)) [µM] | IC50 [nM]
Cc1cc(Oc2ccnc3ccc(C(N)=O)cc23)cc(-n2cccn2)c1 [Compound 1, 4-(3-methyl-5-(1H-pyrazol-1-yl)phenoxy)quinoline-6-carboxamide] | 0.001 to 1 | 0.001 to 1 | –
NC(=O)c1ccc2nccc(Oc3cc(Cl)cc(-n4cccn4)c3)c2c1 [Compound 2, 4-(3-chloro-5-(1H-pyrazol-1-yl)phenoxy)quinoline-6-carboxamide] | > 30 | > 30 | –
COc1cc(Oc2ccnc3ccc(C(N)=O)cc23)cc(O[C@@H]2CCOC2)c1 [Compound 3, (R)-4-(methoxy-5-((tetrahydrofuran-3-yl)oxy)phenoxy)quinoline-6-carboxamide] | 0.001 to 1 | 0.001 to 1 | –
COc1cc2nccc(Oc3cc(-n4cccn4)cc(-n4cccn4)c3)c2cc1C(N)=O [Compound 4, 4-(3,5-di(1H-pyrazol-1-yl)phenoxy)-7-methoxyquinoline-6-carboxamide] | 0.001 to 1 | 0.001 to 1 | –
COc1cc2nccc(Oc3cc(Cl)cc(-n4cccn4)c3)c2cc1C(N)=O [Compound 5, 4-(3-chloro-5-(1H-pyrazol-1-yl)phenoxy)-7-methoxyquinoline-6-carboxamide] | 1 to 10 | 1 to 10 | –
COc1cc(Oc2ccnc3cc(OC)c(C(N)=O)cc23)cc(OC2CCOC2)c1 (stereo not drawn) [Compound 6, 7-methoxy-4-(3-methoxy-5-((tetrahydrofuran-3-yl)oxy)phenoxy)quinoline-6-carboxamide] | 0.001 to 1 | 0.001 to 1 | –
COc1cc(Oc2ccnc3ccccc23)cc(C(=O)O)c1 [Compound 9, 3-methoxy-5-(quinolin-4-yloxy) benzoic add] | > 30 | > 30 | > 30000
CNC(=O)c1cc(OC)cc(Oc2ccnc3ccccc23)c1 [Compound 10, 3-methoxy-N-methyl-5-(quinolin-4-yloxy)benzamide] | 1 to 10 | 0.001 to 1 | 1000 to 10000
COc1cc(Oc2ccnc3ccccc23)cc(C(F)(F)F)c1 [Compound 11] | 1 to 10 | 1 to 10 | 1000 to 10000
COc1cc(Oc2ccnc3ccccc23)cc(-c2nc(C)no2)c1 [Compound 13, 5-(3-methoxy-5-(quinolin-4-yloxy)phenyl)-3-methyl-oxadiazole] | 0.001 to 1 | 0.001 to 1 | 1 to 1000
COc1cc(NC(C)=O)cc(Oc2ccnc3cc(OC)c(C(N)=O)cc23)c1 [Compound 31, 4-(3-acetamido-5-methoxyphenoxy)-7-methoxyquinoline-6-carboxamide] | 0.001 to 1 | 0.001 to 1 | 1 to 1000
COC(=O)c1cc(OC)cc(Oc2ncnc3sccc23)c1 [Compound 41, methyl 3-methoxy-5-(thieno[2,3-d]pyrimidin-4-yloxy)benzoate] | 0.001 to 1 | 0.001 to 1 | 1 to 1000
CNC(=O)c1cc2c(Oc3cc(OC)cc(-n4cccn4)c3)ccnc2cc1OC [Compound 44, 7-Methoxy-4-(3-methoxy-5-(1H-pyrazol-1-yl)phenoxy)-N-methylquinoline-6-carboxamide] | 1 to 10 | 1 to 10 | 1000 to 10000
CNC(=O)c1cc2c(Oc3cc(NC(C)=O)cc(OC)c3)ccnc2cc1OC [Compound 45, 4-(3-Acetamido-5-methoxyphenoxy)-7-methoxy-N-methylquinoline-6-carboxamide] | 1 to 10 | 1 to 10 | 1000 to 10000
COC(=O)c1ccc2nccc(Oc3cc(OC)cc(-n4cccn4)c3)c2c1 [Compound 46, Methyl 4-(3-methoxy-5-(1H-pyrazol-1-yl)phenoxy)quinoline-6-carboxylate] | 0.001 to 1 | 0.001 to 1 | 1 to 1000
COc1cc(OC)cc(Oc2ccnc3ccc(-c4ccco4)cc23)c1 [Compound 47, 4-(3,5-Dimethoxyphenoxy)-6-(furan-2-yl)quinoline] | 1 to 10 | 1 to 10 | 1000 to 10000
COc1cc(OC)cc(Oc2ccnc3ccc(Br)cc23)c1 [Compound 48, 6-Bromo-4-(3,5-dimethoxyphenoxy) quinoline] | 0.001 to 1 | 0.001 to 1 | 1 to 1000

Compound | minimal effective concentration [1] [µM] | minimal effective concentration (read-out: Mitotic Arrest (≥5%)) [µM] | IC50 [nM]
COc1cc(Oc2ccnc3ccc(C(F)(F)F)cc23)cc(-n2cccn2)c1 [Compound 49, 4-(3-Methoxy-5-(1H-pyrazol-1-yl)phenoxy)-6-(trifluoromethyl) quinoline] | 0.001 to 1 | 0.001 to 1 | 1 to 1000
COc1cc(NC(C)=O)cc(Oc2ccnc3ccc(Cl)cc23)c1 [Compound 50, N-(3-((6-chloroquinolin-4-yl)oxy)-5-methoxyphenyl) acetamide] | 0.001 to 1 | 0.001 to 1 | 1 to 1000
COc1cc(Oc2ccnc3ccc(Cl)cc23)cc(-n2cccn2)c1 [Compound 51, 6-Chloro-4-(3-methoxy-5-(1H-pyrazol-1-yl)phenoxy) quinoline] | 0.001 to 1 | 0.001 to 1 | 1 to 1000
COc1cc(NC(C)=O)cc(Oc2ccnc3ccc(C(=O)O)cc23)c1 [Compound 52, 4-(3-Acetamido-5-methoxyphenoxy) quinoline-6-carboxylic acid] | 10 to 30 | 1 to 10 | 10000 to 30000
CNC(=O)c1ccc2nccc(Oc3cc(NC(C)=O)cc(OC)c3)c2c1 [Compound 53, 4-(3-Acetamido-5-methoxyphenoxy)-N-methylquinoline-6-carboxamide] | 0.001 to 1 | 0.001 to 1 | 1 to 1000
COc1cc(OC)cc(Oc2ncnc3ccn(C)c23)c1 [Compound 54, 4-(3,5-Dimethoxyphenoxy)-5-methyl-5H-pyrrolo[3,2-d] pyrimidine] | 10 to 30 | 1 to 10 | 10000 to 30000
COc1cc(NC(C)=O)cc(Oc2ccnc3ccc(C(F)(F)F)cc23)c1 [Compound 55, N-(3-Methoxy-5-((6-(trifluoromethyl)quinolin-4-yl)oxy)phenyl)acetamide] | 0.001 to 1 | 0.001 to 1 | 1 to 1000
COc1cc(NC(C)=O)cc(Oc2ncnc3ccn(C)c23)c1 [Compound 56, N-(3-methoxy-5-((5-methyl-5H-pyrrolo[3,2-d]pyrimidin-4-yl)oxy)phenyl) acetamide] | 10 to 30 | 1 to 10 | 10000 to 30000
CNC(=O)c1ccc2nccc(Oc3cc(OC)cc(-n4cccn4)c3)c2c1 [Compound 57, 4-(3-Methoxy-5-(1H-pyrazol-1-yl)phenoxy)-N-methylquinoline-6-carboxamide] | 0.001 to 1 | 0.001 to 1 | 1 to 1000
COc1cc(NC(C)=O)cc(Oc2ccnc3ccc(C(=O)N(C)C)cc23)c1 [Compound 58, 4-(3-acetamido-5-methoxyphenoxy)-N, N-dimethylquinoline-6-carboxamide] | 1 to 10 | 1 to 10 | 1000 to 10000
CCOc1cc(Oc2ccnc3cc(OC)c(C(N)=O)cc23)cc(-n2cccn2)c1 [Compound 59, 4-(3-ethoxy-5-(1H-pyrazol-1-yl)phenoxy)-7-methoxyquinoline-6-carboxamide] | 0.001 to 1 | 0.001 to 1 | 1 to 1000
COc1cc(NC(C)=O)cc(Oc2ccnc3ccc(I)cc23)c1 [Compound 60, N-(3-((6-iodoquinolin-4-yl)oxy)-5-methoxyphenyl) acetamide] | 0.001 to 1 | 0.001 to 1 | 1 to 1000
COc1cc(Oc2ccnc3ccc(C(N)=O)cc23)cc(-n2cccn2)c1 [Compound 61, 4-(3-Methoxy-5-(1H-pyrazol-1-yl)phenoxy) quinolin-6-carbazamide] | 0.001 to 1 | 0.001 to 1 | 1 to 1000
COc1cc(Oc2ccnc3cc(OC)c(C(N)=O)cc23)cc(-c2ncccn2)c1 [Compound 62, 7-Methoxy-4-(3-methoxy-5-(pyridimin-2-yl)phenoxy) quinoline-6-carboxamide] | 0.001 to 1 | 0.001 to 1 | 1 to 1000
COc1cc(Oc2ccnc3cc(OC)c(OC)cc23)cc(-c2ncccn2)c1 [Compound 63, 6,7-Dimethoxy-4-(3-methoxy-5-(pyrimidin-2-yl)phenoxy) quinoline] | 0.001 to 1 | 0.001 to 1 | 1 to 1000
COc1cc(Oc2ccnc3cc(OC)c(C(N)=O)cc23)cc(-c2nc(C)no2)c1 [Compound 64, 7-Methoxy-4-(3-methoxy-5-(3-methyl-1,2,4-oxadiazol-5-yl)phenoxy)quinoline-6-carboxamide] | 0.001 to 1 | 0.001 to 1 | 1 to 1000
